Results from ChEMBL document CHEMBL6087402, “Design, synthesis, and in vitro and in vivo biological evaluation of dihydroartemisinin derivatives as potent anti-cancer agents with ferroptosis-inducing and apoptosis-activating properties” (Eur J Med Chem, 2025).

Assays:
Bel-7402 = experiment: Anti-proliferative activity against human Bel-7402 cells incubated for 72 hrs by MTT assay; format: functional, cell-based; conditions: Bel-7402, 72 h
SW-620 = experiment: Anti-proliferative activity against human SW620 cells incubated for 72 hrs by MTT assay; format: functional, cell-based; conditions: SW-620, 72 h
A549 = experiment: Anti-proliferative activity against human A549 cells incubated for 72 hrs by MTT assay; format: functional, cell-based; conditions: A549, 72 h
HCT-116 = experiment: Anti-proliferative activity against human HCT-116 cells incubated for 72 hrs by MTT assay; format: functional, cell-based; conditions: HCT-116, 72 h
[1] = Selectivity index, ratio of IC50 for human L02 cells to IC50 for human HCT-116 cells; format: toxicity; conditions: L02 cells versus HCT-116 cells, read-out: Ratio IC50
[2] = Anti-proliferative activity against human L02 cells incubated for 72 hrs by MTT assay; format: toxicity, cell-based
[3] = Selectivity index, ratio of IC50 for human L02 cells to IC50 for human A549 cells; format: toxicity; conditions: L02 cells versus A549 cells, read-out: Ratio IC50
[4] = Selectivity index, ratio of IC50 for human L02 cells to IC50 for human Bel-7402 cells; format: toxicity; conditions: L02 cells versus Bel-7402 cells, read-out: Ratio IC50
[5] = Selectivity index, ratio of IC50 for human L02 cells to IC50 for human SW620 cells; format: toxicity; conditions: L02 cells versus SW620 cells, read-out: Ratio IC50

| Structure (SMILES) | IC50 (Bel-7402) [µM] | IC50 (SW-620) [µM] | IC50 (A549) [µM] | IC50 (HCT-116) [µM] | selectivity ratio [1] | IC50 at 72 h [2] [µM] | selectivity ratio [3] | selectivity ratio [4] | selectivity ratio [5] |
| --- | --- | --- | --- | --- | --- | --- | --- | --- | --- |
| C[C@@H]1CC[C@H]2[C@@H](C)C(OC(=O)c3cn(-c4ccc(F)cc4)nn3)O[C@@H]3O[C@@]4(C)CC[C@H]1[C@]32OO4 (some centres undefined) | > 10 | 9.51 | > 10 | 3.38 | – | – | – | – | – |
| C[C@@H]1CC[C@H]2[C@@H](C)C(OC(=O)c3ccc(Cn4cc(Br)cn4)cc3)O[C@@H]3O[C@@]4(C)CC[C@H]1[C@]32OO4 (some centres undefined) | 8.53 | > 10 | 4.9 | 1.9 | – | – | – | – | – |
| C[C@@H]1CC[C@H]2[C@@H](C)C(OC(=O)c3ccc(Cn4cccn4)cc3)O[C@@H]3O[C@@]4(C)CC[C@H]1[C@]32OO4 (some centres undefined) | > 10 | > 10 | 7.01 | 2.31 | – | – | – | – | – |
| C[C@@H]1CC[C@H]2[C@@H](C)C(OC(=O)CCc3nc(-c4ccccc4)no3)O[C@@H]3O[C@@]4(C)CC[C@H]1[C@]32OO4 (some centres undefined) | 3.99 | 7.9 | 9.1 | 4.35 | – | – | – | – | – |
| COc1ccc(-n2cc(C(=O)OC3O[C@@H]4O[C@@]5(C)CC[C@@H]6[C@H](C)CC[C@@H]([C@H]3C)[C@@]46OO5)nn2)cc1OC (some centres undefined) | 8.62 | 9.61 | > 10 | 3.39 | – | – | – | – | – |
| COc1ccc(-n2cc(COC(=O)CCC(=O)OC3O[C@@H]4O[C@@]5(C)CC[C@@H]6[C@H](C)CC[C@@H]([C@H]3C)[C@@]46OO5)nn2)cc1 (some centres undefined) | > 10 | 1.59 | 7.18 | 2.78 | – | – | – | – | – |
| COc1ccc2[nH]cc(CCNC(=O)CCC(=O)OC3O[C@@H]4O[C@@]5(C)CC[C@@H]6[C@H](C)CC[C@@H]([C@H]3C)[C@@]46OO5)c2c1 (some centres undefined) | > 10 | 7.28 | > 10 | 6.64 | – | – | – | – | – |
| C[C@@H]1CC[C@H]2[C@@H](C)C(OC(=O)c3cn(-c4ccc(Cl)cc4)nn3)O[C@@H]3O[C@@]4(C)CC[C@H]1[C@]32OO4 (some centres undefined) | 9.24 | 8.21 | > 10 | 3.12 | – | – | – | – | – |
| C[C@@H]1CC[C@H]2[C@@H](C)C(OC(=O)c3cn(-c4ccc([N+](=O)[O-])cc4)nn3)O[C@@H]3O[C@@]4(C)CC[C@H]1[C@]32OO4 (some centres undefined) | > 10 | 4.22 | > 10 | > 10 | – | – | – | – | – |
| COc1ccc(-n2cc(COC(=O)CCC(=O)OC3O[C@@H]4O[C@@]5(C)CC[C@@H]6[C@H](C)CC[C@@H]([C@H]3C)[C@@]46OO5)nn2)cc1OC (some centres undefined) | > 10 | 2.89 | 8.03 | 1.79 | – | – | – | – | – |
| C[C@@H]1CC[C@H]2[C@@H](C)C(OC(=O)Nc3ccccc3)O[C@@H]3O[C@@]4(C)CC[C@H]1[C@]32OO4 (some centres undefined) | 4.62 | 1.34 | 4.18 | 0.72 | 18.6 | 13.4 | 3.2 | 2.9 | 9.99 |
| C[C@@H]1CC[C@H]2[C@@H](C)C(OC(=O)c3ccc(Cn4cncn4)cc3)O[C@@H]3O[C@@]4(C)CC[C@H]1[C@]32OO4 (some centres undefined) | > 10 | 8.32 | 7.19 | 3.39 | – | – | – | – | – |
| C[C@@H]1CC[C@H]2[C@@H](C)C(OC(=O)NC(=O)c3ccccc3)O[C@@H]3O[C@@]4(C)CC[C@H]1[C@]32OO4 (some centres undefined) | > 10 | > 10 | > 10 | 5.48 | – | – | – | – | – |
| CCCCCNC(=O)OC1O[C@@H]2O[C@@]3(C)CC[C@@H]4[C@H](C)CC[C@@H]([C@H]1C)[C@@]24OO3 (some centres undefined) | > 10 | 1.42 | 7.5 | 1.82 | – | – | – | – | – |
| C[C@@H]1CC[C@H]2[C@@H](C)C(OC(=O)c3ccc(Cn4cc(Cl)cn4)cc3)O[C@@H]3O[C@@]4(C)CC[C@H]1[C@]32OO4 (some centres undefined) | > 10 | 5.17 | 5.07 | 2.6 | – | – | – | – | – |
| C[C@@H]1CC[C@H]2[C@@H](C)C(OC(=O)CCc3nc(-c4ccc(F)cc4)no3)O[C@@H]3O[C@@]4(C)CC[C@H]1[C@]32OO4 (some centres undefined) | 5.07 | 7.17 | 6.55 | 2.94 | – | – | – | – | – |
| C[C@@H]1CC[C@H]2[C@@H](C)C(OC(=O)c3cc4ccccc4cn3)O[C@@H]3O[C@@]4(C)CC[C@H]1[C@]32OO4 (some centres undefined) | > 10 | 4.81 | > 10 | 5.51 | – | – | – | – | – |
| CCCCNC(=O)OC1O[C@@H]2O[C@@]3(C)CC[C@@H]4[C@H](C)CC[C@@H]([C@H]1C)[C@@]24OO3 (some centres undefined) | > 10 | > 10 | > 10 | 3.51 | – | – | – | – | – |

| Structure (SMILES) | IC50 (Bel-7402) [µM] | IC50 (SW-620) [µM] | IC50 (A549) [µM] | IC50 (HCT-116) [µM] | selectivity ratio [1] | IC50 at 72 h [2] [µM] | selectivity ratio [3] | selectivity ratio [4] | selectivity ratio [5] |
| --- | --- | --- | --- | --- | --- | --- | --- | --- | --- |
| C[C@@H]1CC[C@H]2[C@@H](C)C(OC(=O)c3ccc4ncccc4c3)O[C@@H]3O[C@@]4(C)CC[C@H]1[C@]32OO4 (some centres undefined) | > 10 | 3.02 | > 10 | 3.22 | – | – | – | – | – |
| C[C@@H]1CC[C@H]2[C@@H](C)C(OC(=O)CCC(=O)NCCc3c[nH]c4ccc(Cl)cc34)O[C@@H]3O[C@@]4(C)CC[C@H]1[C@]32OO4 (some centres undefined) | > 10 | 1.73 | 7.25 | 4.99 | – | – | – | – | – |
| C[C@@H]1CC[C@H]2[C@@H](C)C(OC(=O)CCC(=O)OCc3cn(-c4ccc(F)cc4)nn3)O[C@@H]3O[C@@]4(C)CC[C@H]1[C@]32OO4 (some centres undefined) | > 10 | 2.33 | 6.28 | 2.21 | – | – | – | – | – |
| C[C@@H]1CC[C@H]2[C@@H](C)C(OC(=O)c3cn(-c4ccccc4)nn3)O[C@@H]3O[C@@]4(C)CC[C@H]1[C@]32OO4 (some centres undefined) | > 10 | 7.22 | > 10 | 3.41 | – | – | – | – | – |
| COc1cc(-n2cc(C(=O)OC3O[C@@H]4O[C@@]5(C)CC[C@@H]6[C@H](C)CC[C@@H]([C@H]3C)[C@@]46OO5)nn2)cc(OC)c1OC (some centres undefined) | > 10 | 1.9 | > 10 | 4.32 | – | – | – | – | – |
| C[C@@H]1CC[C@H]2[C@@H](C)C(OC(=O)CCC(=O)OCc3cn(-c4ccc(Cl)cc4)nn3)O[C@@H]3O[C@@]4(C)CC[C@H]1[C@]32OO4 (some centres undefined) | > 10 | 1.1 | > 10 | 3.03 | – | – | – | – | – |
| C[C@@H]1CC[C@H]2[C@@H](C)C(OC(=O)CCC(=O)NCCc3c[nH]c4ccccc34)O[C@@H]3O[C@@]4(C)CC[C@H]1[C@]32OO4 (some centres undefined) | > 10 | 1.81 | > 10 | 6.74 | – | – | – | – | – |
| C[C@@H]1CC[C@H]2[C@@H](C)C(OC(=O)c3ccc(CN4CCCCC4)cc3)O[C@@H]3O[C@@]4(C)CC[C@H]1[C@]32OO4 (some centres undefined) | > 10 | 7.1 | > 10 | 2.31 | – | – | – | – | – |
| C[C@@H]1CC[C@H]2[C@@H](C)C(OC(=O)c3cnc4ccccc4c3)O[C@@H]3O[C@@]4(C)CC[C@H]1[C@]32OO4 (some centres undefined) | 8.4 | > 10 | > 10 | 2.62 | – | – | – | – | – |
| C[C@@H]1CC[C@H]2[C@@H](C)C(OC(=O)CCc3nc(-c4ccc(Cl)c(Cl)c4)no3)O[C@@H]3O[C@@]4(C)CC[C@H]1[C@]32OO4 (some centres undefined) | > 10 | > 10 | 9.09 | 2.13 | – | – | – | – | – |
| COc1ccc(-n2cc(C(=O)OC3O[C@@H]4O[C@@]5(C)CC[C@@H]6[C@H](C)CC[C@@H]([C@H]3C)[C@@]46OO5)nn2)cc1 (some centres undefined) | 8.7 | 8.4 | > 10 | 3.18 | – | – | – | – | – |
| C[C@@H]1CC[C@H]2[C@@H](C)C(OC(=O)CCc3nc(-c4ccc(Cl)cc4)no3)O[C@@H]3O[C@@]4(C)CC[C@H]1[C@]32OO4 (some centres undefined) | 7.05 | > 10 | 6.79 | 3.68 | – | – | – | – | – |
| C[C@@H]1CC[C@H]2[C@@H](C)C(OC(=O)CCC(=O)OCc3cn(-c4ccccc4)nn3)O[C@@H]3O[C@@]4(C)CC[C@H]1[C@]32OO4 (some centres undefined) | > 10 | 1.79 | 6.51 | 2.38 | – | – | – | – | – |
| C[C@@H]1CC[C@H]2[C@@H](C)C(OC(=O)c3ccc(Cn4ccc5ccc(F)cc54)cc3)O[C@@H]3O[C@@]4(C)CC[C@H]1[C@]32OO4 (some centres undefined) | > 10 | 4.36 | 0.89 | 0.47 | – | – | – | – | – |
| C[C@@H]1CC[C@H]2[C@@H](C)C(OC(=O)c3cn(-c4ccc(Br)cc4)nn3)O[C@@H]3O[C@@]4(C)CC[C@H]1[C@]32OO4 (some centres undefined) | > 10 | 7.42 | > 10 | 3.87 | – | – | – | – | – |
| COc1ccc(-c2noc(CCC(=O)OC3O[C@@H]4O[C@@]5(C)CC[C@@H]6[C@H](C)CC[C@@H]([C@H]3C)[C@@]46OO5)n2)cc1 (some centres undefined) | 4.96 | > 10 | > 10 | 3.48 | – | – | – | – | – |
| C[C@@H]1CC[C@H]2[C@@H](C)C(OC(=O)c3cccc4ncccc34)O[C@@H]3O[C@@]4(C)CC[C@H]1[C@]32OO4 (some centres undefined) | > 10 | 3.01 | > 10 | 3.73 | – | – | – | – | – |
| CCCCCCCNC(=O)OC1O[C@@H]2O[C@@]3(C)CC[C@@H]4[C@H](C)CC[C@@H]([C@H]1C)[C@@]24OO3 (some centres undefined) | > 10 | 3.9 | 8 | 1.19 | – | – | – | – | – |
